Data taken from patent publication US20080312287A1, “Compound and Methods For the Treatment of Cancer and Malaria” (University of Washington, priority 2005, published 2008).
Where two headings read alike, the source gives them in different places.

Legend:
[1] = target: T1, PfPFT (Plasmodium falciparum, UniProt Q8I503+Q8IHP6); experiment: PfPFT inhibition, scintillation proximity assay with partially purified PfPFT; format: biochemical; conditions: for inhibition at 0.005 µM: read-out: % Inhibition of PfPFT at 5 nM, inhibitor at 5 nM; for inhibition at 0.05 µM: read-out: % Inhibition of PfPFT at 50 nM, inhibitor at 50 nM
T1 sequence (Q8I503 1-521): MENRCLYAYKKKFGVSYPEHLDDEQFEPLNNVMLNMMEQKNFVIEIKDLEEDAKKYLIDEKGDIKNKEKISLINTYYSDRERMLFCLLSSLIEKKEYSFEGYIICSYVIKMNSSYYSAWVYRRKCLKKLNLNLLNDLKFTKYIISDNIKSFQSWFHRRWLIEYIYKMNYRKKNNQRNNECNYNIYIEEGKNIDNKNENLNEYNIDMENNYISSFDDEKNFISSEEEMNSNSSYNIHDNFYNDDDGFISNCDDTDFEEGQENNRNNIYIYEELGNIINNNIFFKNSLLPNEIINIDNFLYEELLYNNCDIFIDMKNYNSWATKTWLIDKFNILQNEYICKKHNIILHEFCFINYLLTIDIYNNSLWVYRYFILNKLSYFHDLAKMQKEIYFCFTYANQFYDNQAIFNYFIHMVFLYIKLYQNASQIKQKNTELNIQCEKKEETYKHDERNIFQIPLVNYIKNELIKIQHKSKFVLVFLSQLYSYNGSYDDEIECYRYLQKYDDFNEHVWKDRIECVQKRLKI
T1 sequence (Q8IHP6 1-923): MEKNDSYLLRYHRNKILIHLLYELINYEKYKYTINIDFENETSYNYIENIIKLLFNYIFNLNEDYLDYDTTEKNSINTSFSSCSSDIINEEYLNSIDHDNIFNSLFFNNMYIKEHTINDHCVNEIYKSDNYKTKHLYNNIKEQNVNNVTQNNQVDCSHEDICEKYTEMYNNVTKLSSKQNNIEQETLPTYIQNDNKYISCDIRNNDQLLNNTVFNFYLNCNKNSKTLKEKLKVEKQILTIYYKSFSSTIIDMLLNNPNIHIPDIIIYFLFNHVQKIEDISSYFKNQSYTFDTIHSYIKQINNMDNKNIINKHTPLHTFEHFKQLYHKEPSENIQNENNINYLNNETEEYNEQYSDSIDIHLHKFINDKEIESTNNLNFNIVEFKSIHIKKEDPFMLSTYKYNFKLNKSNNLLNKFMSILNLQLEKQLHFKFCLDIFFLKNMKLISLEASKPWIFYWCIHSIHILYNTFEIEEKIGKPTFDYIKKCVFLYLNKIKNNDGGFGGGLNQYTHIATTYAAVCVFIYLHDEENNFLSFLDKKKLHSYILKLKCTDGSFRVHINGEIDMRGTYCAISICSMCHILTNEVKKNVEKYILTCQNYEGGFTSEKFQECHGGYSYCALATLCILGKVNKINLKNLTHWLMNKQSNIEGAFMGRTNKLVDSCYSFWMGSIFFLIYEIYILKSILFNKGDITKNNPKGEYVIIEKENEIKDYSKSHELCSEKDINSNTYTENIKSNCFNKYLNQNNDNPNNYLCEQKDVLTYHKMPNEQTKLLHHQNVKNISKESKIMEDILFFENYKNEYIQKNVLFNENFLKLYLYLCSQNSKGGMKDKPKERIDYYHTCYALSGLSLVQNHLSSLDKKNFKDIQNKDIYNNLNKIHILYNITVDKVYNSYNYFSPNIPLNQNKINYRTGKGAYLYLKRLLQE

[2] = tested on: P. falciparum 3D7; experiment: P. falciparum ED50 determination, [3H]-hypoxanthine incorporation, strain 3D7; format: cell-based, Plasmodium falciparum
From the text: (§1) Plasmodium strains. The P. falciparum strains used in this study were 3D7 (Netherlands, sensitive) provided by Dr. Pradipsinh Rathod from the University of Washington and K1 (Thailand, ChQ-R, Pyr-R) obtained from the MR4Unit of the American Type Culture Collection (ATCC, Manassas, Va.).
(§2) P. falciparum culture. Strains of P. falciparum were sustained in vitro based on experimental techniques as described by Trager and Jensen.^26 Cultures were maintained in RPMI-1640 (Sigma, St. Louis, […].) with 2 mM L-glutamine, 25 mM HEPES, 33 mM NaHCO3, 20 μg/ml gentamicin sulfate and 20% (v/v) heat-inactivated human plasma type A+ (R^P-20P). Type A+ erythrocytes were obtained from lab donors, washed three times with RPMI, re-suspended in 50% RPMI, and stored at 4° C. Parasites were grown in 10 mL of a 2% hematocrit/RP-20P (v/v) in 50-mL flasks under a 5% CO2, 5% O2, and 90% N2 atmosphere.
(§3) P. falciparum ED50 determination. One […]L of PFTI dissolved in DMSO was added to each well of a 96-well plate followed by the addition of 200 μL of P. falciparum culture at parasitemia and hematocrit of 0.5%. Plates were flushed with 5% CO2, 5% O2, and 90% N2 then incubated at 37° C. for 48 hr. [8-^3H]-hypoxanthine (0.3 μCi, 20 Ci/mmol, American Radiolabeled Chemicals) in 30 μL RP-20P was added to cultures and incubated for an additional 24 hours. Cells were harvested onto filter mats by a Multiharvester (Skatron, Sunnyvale, Calif.) and the radioactivity incorporated into the parasites was counted on a β-scintillation counter. The background level detected with uninfected erythrocytes was subtracted from the data. The ^3H-incorporation into infected RBCs with 1 μL DMSO vehicle alone represents 100% malaria growth. ED50 values were determined by linear regression analysis of the plots of ^3H-hypoxanthine incorporation versus concentration of compound.

[3] = tested on: P. falciparum K1; experiment: P. falciparum ED50 determination, [3H]-hypoxanthine incorporation, strain K1; format: cell-based, Plasmodium falciparum
From the text: as §1, §2, §3

[4] = Plasmodium falciparum, 3D7, strain 3D7, concentration decreasing hypoxanthine incorporation into parasites twofold, read-out: ED50 3D7
[5] = Plasmodium falciparum, K1, strain K1, concentration decreasing hypoxanthine incorporation into parasites twofold, read-out: ED50 K1
[6] = Plasmodium falciparum, 3D7, read-out: ED50 3D7
[7] = Plasmodium falciparum, K1, read-out: ED50 K1

SMILES	inhibition at 0.005 µM [1] [%]	inhibition at 0.05 µM [1] [%]	EC50 [2, 4] [nM]	EC50 [3, 5] [µM]	further results
Cn1cncc1CN(CCN(Cc1ccccc1)S(=O)(=O)c1cccc2cccnc12)c1ccc(C#N)cc1 [Compound 8h, Quinoline-8-sulfonic acid benzyl-{2-[(4-cyano-phenyl)-(3-methyl-3H-imidazol-4-ylmethyl)-amino]-ethyl}-amide]	14	35	2100	2.4	
Cn1cnc(S(=O)(=O)N(CCN(Cc2cncn2C)c2ccc(C#N)cc2)Cc2cccnc2)c1 [Compound 8ab, 1-Methyl-1H-imidazole-4-sulfonic acid {2-[(4-cyano-phenyl)-(3-methyl-3H-imidazol-4-ylmethyl)-amino]-ethyl}-pyridin-3-ylmethyl-amide]	18	74	2800	4.25	
Cn1cnc(S(=O)(=O)N(CCN(Cc2cncn2C)c2ccc(C#N)cc2)Cc2cccc(-c3ccccc3)c2)c1 [Compound 8af, 1-Methyl-1H-imidazole-4-sulfonic acid biphenyl-3-ylmethyl-{2-[(4-cyano-phenyl)-(3-methyl-3H-imidazol-4-ylmethyl)-amino]-ethyl}-amide]	56	93	2400	3.25	
Cn1cnc(S(=O)(=O)N(CCN(Cc2cncn2C)c2ccc(C#N)cc2)Cc2ccncc2)c1 [Compound 8ac, 1-Methyl-1H-imidazole-4-sulfonic acid {2-[(4-cyano-phenyl)-(3-methyl-3H-imidazol-4-ylmethyl)-amino]-ethyl}-pyridin-4-ylmethyl-amide]	22	62	3700	5	
Cn1cnc(S(=O)(=O)N(CCN(Cc2cncn2C)c2ccc(C#N)cc2)CCn2cccc2)c1 [Compound 8p, 1-Methyl-1H-imidazole-4-sulfonic acid {2-[(4-cyano-phenyl)-(3-methyl-3H-imidazol-4-ylmethyl)-amino]-ethyl}-(2-pyrrol-1-yl-ethyl)-amide]	11	56	> 5000	> 5	
CC(=O)N(CCN(Cc1cncn1C)c1ccc(C#N)cc1)Cc1ccccc1 [Compound 8j, N-Benzyl-N-{2-[(4-cyano-phenyl)-(3-methyl-3H-imidazol-4-ylmethyl)-amino]-ethyl}-acetamide]	0	56			EC50 [2, 6]: 2500 nM; EC50 [3, 7]: > 5 µM
Cn1cnc(S(=O)(=O)N(CCN(Cc2cnc[nH]2)c2ccc(Br)cc2)Cc2ccccc2)c1 [Compound 8a, 1-Methyl-1H-imidazole-4-sulfonic acid benzyl-{2-[(4-bromo-phenyl)-(3H-imidazol-4-ylmethyl)-amino]-ethyl}-amide]		80			
Cn1cnc(S(=O)(=O)N(CCN(Cc2cncn2C)c2ccc(C#N)cc2)CC2CCN(c3ncccn3)CC2)c1 [Compound 8w, 1-Methyl-1H-imidazole-4-sulfonic acid {2-[(4-cyano-phenyl)-(3-methyl-3H-imidazol-4-ylmethyl)-amino]-ethyl}-(1-pyrimidin-2-yl-piperidin-4-ylmethyl)-amide]	74	96	130	0.085	IC50 ([1]; concentration decreasing transferase activity twofold): 1.5 nM
O=S(=O)(c1ccc2ccccc2c1)N(CCN(Cc1cnc[nH]1)c1ccccc1)Cc1ccccc1 [Compound 3e, Naphthalene-2-sulfonic acid benzyl-{2-[(3H-imidazol-4-ylmethyl)-phenyl-amino]-ethyl}-amide]		0			
Cc1ccc(CN(CCN(Cc2cncn2C)c2ccc(C#N)cc2)S(=O)(=O)c2cn(C)cn2)cc1 [Compound 8z, 1-Methyl-1H-imidazole-4-sulfonic acid {2-[(4-cyano-phenyl)-(3-methyl-3H-imidazol-4-ylmethyl)-amino]-ethyl}-(4-methyl-benzyl)-amide]	45	54			EC50 [2, 6]: 2700 nM; EC50 [3, 7]: > 5 µM
CN(C)c1cccc2c(S(=O)(=O)N(CCN(Cc3cnc[nH]3)c3ccccc3)Cc3ccccc3)cccc12 [Compound 3g, 5-Dimethylamino-naphthalene-1-sulfonic acid benzyl-{2-[(3H-imidazol-4-ylmethyl)-phenyl-amino]-ethyl}-amide]		0			
C=CCN(CCN(Cc1cncn1C)c1ccc(C#N)cc1)S(=O)(=O)c1cn(C)cn1 [Compound 8l, 1-Methyl-1H-imidazole-4-sulfonic acid allyl-{2-[(4-cyano-phenyl)-(3-methyl-3H-imidazol-4-ylmethyl)-amino]-ethyl}-amide]	1	42	> 5000	> 5	
Cn1cnc(S(=O)(=O)N(CCN(Cc2cncn2C)c2ccc(C#N)cc2)Cc2cccc(C#N)c2)c1 [Compound 8ad, 1-Methyl-1H-imidazole-4-sulfonic acid (3-cyano-benzyl)-{2-[(4-cyano-phenyl)-(3-methyl-3H-imidazol-4-ylmethyl)-amino]-ethyl}-amidem-cyanobenzyl]					% Inhibition of PfPFT at 5 nM ([1]; inhibitor at 5 nM): 45%; % Inhibition of PfPFT at 50 nM ([1]; inhibitor at 50 nM): 89%; EC50 ([2]; strain 3D7, concentration decreasing hypoxanthine incorporation into parasites twofold, read-out: ED50 3D7): 350 nM; EC50 ([3]; strain K1, concentration decreasing hypoxanthine incorporation into parasites twofold, read-out: ED50 K1): 1.8 µM
Cn1cnc(S(=O)(=O)N(CCN(Cc2cnc[nH]2)c2ccccc2)Cc2ccccc2)c1 [Compound 3c, 1-Methyl-1H-imidazole-4-sulfonic acid benzyl-{2-[(3H-imidazol-4-ylmethyl)-phenyl-amino]-ethyl}-amide]		32			
Cc1ccc(CS(=O)(=O)N(CCN(Cc2cnc[nH]2)c2ccccc2)Cc2ccccc2)cc1 [Compound 3d, N-Benzyl-N-{2-[(3H-imidazol-4-ylmethyl)-phenyl-amino]-ethyl}-C-p-tolyl-methanesulfonamide]		3			
O=S(=O)(c1cccc2cccnc12)N(CCN(Cc1cnc[nH]1)c1ccccc1)Cc1ccccc1 [Compound 3f, Quinoline-8-sulfonic acid benzyl-{2-[(3H-imidazol-4-ylmethyl)-phenyl-amino]-ethyl}-amide]		0			
